Laboratory results from patent publication US8524745B2 (Allergan, Inc., priority 2011, dated 2013).
pIC50: −log10 of the molar value.

These compounds were tested against T1, CCR2 (Homo sapiens, UniProt P41597) (assay: CCR2 calcium activity assay on FLIPR Tetra in HEK-Gqi5 cells stably expressing CCR2).
T1 construct: expressed in transfected cells
Type: cell-based
Protocol: HEK-Gqi5 cells stably expressing CCR2 were cultured in (DMEM high glucose, 10% FBS, 1% PSA, 400 μg/ml geneticin and 50 μg/ml hygromycin. Appropriate positive control chemokines (MCP-1, MIP1A or RANTES) was used as the positive control agonist for screening compound-induced calcium activity assayed on the FLIPR^Tetra. The drug plates were prepared in 384-well microplates using the EP3 and the MuItiPROBE robotic liquid handling systems. Compounds were synthesized and tested for CCR2 activity.

T1 sequence (P41597 whole entry, species assumed): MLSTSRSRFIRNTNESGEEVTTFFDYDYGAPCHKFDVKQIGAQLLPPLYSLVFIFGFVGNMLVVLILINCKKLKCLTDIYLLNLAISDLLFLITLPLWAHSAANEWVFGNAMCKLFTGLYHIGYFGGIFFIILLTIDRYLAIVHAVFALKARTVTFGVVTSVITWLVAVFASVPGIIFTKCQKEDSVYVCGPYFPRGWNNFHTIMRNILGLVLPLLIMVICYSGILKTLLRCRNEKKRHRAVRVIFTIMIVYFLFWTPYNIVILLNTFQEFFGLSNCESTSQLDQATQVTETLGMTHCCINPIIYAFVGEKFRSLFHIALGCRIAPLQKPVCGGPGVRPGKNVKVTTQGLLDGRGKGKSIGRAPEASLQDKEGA

| Structure (SMILES) | CCR2 % ANTAG | pIC50 |
| --- | --- | --- |
| Cc1cccc(NS(=O)(=O)c2ccc3c(c2)c(=O)sn3C)c1NS(=O)(=O)c1cccs1 [1-methyl-N-{3-methyl-2-[(2-thienylsulfonyl)amino]phenyl}-3-oxo-1,3-dihydro-2,1-benzisothiazole-5-sulfonamide] | 86% |  |
| Cc1ccc(NS(=O)(=O)c2ccc3c(c2)c(=O)sn3C)c(NS(=O)(=O)c2cccs2)c1 [1-methyl-N-{4-methyl-2-[(2-thienylsulfonyl)amino]phenyl}-3-oxo-1,3-dihydro-2,1-benzisothiazole-5-sulfonamide] | 99% | 6.25 |
| Cc1ccc(NS(=O)(=O)c2cccs2)c(NS(=O)(=O)c2ccc3c(c2)c(=O)sn3C)c1 [1-methyl-N-{5-methyl-2-[(2-thienylsulfonyl)amino]phenyl}-3-oxo-1,3-dihydro-2,1-benzisothiazole-5-sulfonamide] | 102% | 6.42 |
| Cn1sc(=O)c2cc(S(=O)(=O)Nc3cccc4c3OCO4)ccc21 [N-1,3-benzodioxol-4-yl-1-methyl-3-oxo-1,3-dihydro-2,1-benzisothiazole-5-sulfonamide] | 73% | 5.71 |
| Cn1sc(=O)c2cc(S(=O)(=O)Nc3cccc4c3OC(F)(F)O4)ccc21 [N-(2,2-difluoro-1,3-benzodioxol-4-yl)-1-methyl-3-oxo-1,3-dihydro-2,1-benzisothiazole-5-sulfonamide] | 80% | 6.00 |
| Cn1sc(=O)c2cc(S(=O)(=O)Nc3cccc4c3OCCO4)ccc21 [N-(2,3-dihydro-1,4-benzodioxin-5-yl)-1-methyl-3-oxo-1,3-dihydro-2,1-benzisothiazole-5-sulfonamide] | 76% | 5.84 |
| COc1cccc(NS(=O)(=O)c2ccc3c(c2)c(=O)sn3C)c1OC [N-(2,3-dimethoxyphenyl)-1-methyl-3-oxo-1,3-dihydro-2,1-benzisothiazolesulfonamide] | 55% | 5.42 |
| Cn1sc(=O)c2cc(S(=O)(=O)Nc3ccccc3NS(=O)(=O)c3cc(Cl)ccc3Cl)ccc21 [N-(2-{[(2,5-dichlorophenyl)sulfonyl]amino}phenyl)-1-methyl-3-oxo-1,3-dihydro-2,1-benzisothiazole-5-sulfonamide] | 99% | 5.74 |
| Cn1sc(=O)c2cc(S(=O)(=O)Nc3ccccc3NS(=O)(=O)c3ccccc3Cl)ccc21 [N-(2-{[(2-chlorophenyl)sulfonyl]amino}phenyl)-1-methyl-3-oxo-1,3-dihydro-2,1-benzisothiazole-5-sulfonamide] | 84% | 5.87 |
| Cn1sc(=O)c2cc(S(=O)(=O)Nc3ccccc3NS(=O)(=O)c3ccccc3F)ccc21 [N-(2-{[(2-fluorophenyl)sulfonyl]amino}phenyl)-1-methyl-3-oxo-1,3-dihydro-2,1-benzisothiazole-5-sulfonamide] | 103% | 6.44 |
| Cn1sc(=O)c2cc(S(=O)(=O)Nc3ccccc3NS(=O)(=O)c3ccc(Cl)c(Cl)c3)ccc21 [N-(2-{[(3,4-dichlorophenyl)sulfonyl]amino}phenyl)-1-methyl-3-oxo-1,3-dihydro-2,1-benzisothiazole-5-sulfonamide] | 92% | 6.28 |
| Cn1sc(=O)c2cc(S(=O)(=O)Nc3ccccc3NS(=O)(=O)c3cc(Cl)cc(Cl)c3)ccc21 [N-(2-{[(3,5-dichlorophenyl)sulfonyl]amino}phenyl)-1-methyl-3-oxo-1,3-dihydro-2,1-benzisothiazole-5-sulfonamide] | 95% | 5.59 |
| Cn1sc(=O)c2cc(S(=O)(=O)Nc3ccccc3NS(=O)(=O)c3cc(F)cc(F)c3)ccc21 [N-(2-{[(3,5-difluorophenyl)sulfonyl]amino}phenyl)-1-methyl-3-oxo-1,3-dihydro-2,1-benzisothiazole-5-sulfonamide] | 96% | 6.36 |
| Cn1sc(=O)c2cc(S(=O)(=O)Nc3ccccc3NS(=O)(=O)c3cccc(F)c3)ccc21 [N-(2-{[(3-fluorophenyl)sulfonyl]amino}phenyl)-1-methyl-3-oxo-1,3-dihydro-2,1-benzisothiazole-5-sulfonamide] | 100% | 5.62 |
| Cn1sc(=O)c2cc(S(=O)(=O)Nc3ccccc3NS(=O)(=O)c3cc(Cl)c(Cl)s3)ccc21 [N-(2-{[(4,5-dichloro-2-thienyl)sulfonyl]amino}phenyl)-1-methyl-3-oxo-1,3-dihydro-2,1-benzisothiazole-5-sulfonamide] | 89% | 6.44 |
| Cn1sc(=O)c2cc(S(=O)(=O)Nc3ccccc3NS(=O)(=O)c3ccc(Cl)cc3)ccc21 [N-(2-{[(4-chlorophenyl)sulfonyl]amino}phenyl)-1-methyl-3-oxo-1,3-dihydro-2,1-benzisothiazole-5-sulfonamide] | 99% | 5.97 |

| Structure (SMILES) | CCR2 % ANTAG | pIC50 |
| --- | --- | --- |
| COc1ccc(S(=O)(=O)Nc2ccccc2NS(=O)(=O)c2ccc3c(c2)c(=O)sn3C)cc1 [N-(2-{[(4-methoxyphenyl)sulfonyl]amino}phenyl)-1-methyl-3-oxo-1,3-dihydro-2,1-benzisothiazole-5-sulfonamide] | 67% | 5.61 |
| Cn1sc(=O)c2cc(S(=O)(=O)Nc3ccccc3NS(=O)(=O)c3ccc(Cl)s3)ccc21 [N-(2-{[(5-chloro-2-thienyl)sulfonyl]amino}phenyl)-1-methyl-3-oxo-1,3-dihydro-2,1-benzisothiazole-5-sulfonamide] | 104% | 6.29 |
| Cn1sc(=O)c2cc(S(=O)(=O)Nc3ccc(Cl)c(Cl)c3)ccc21 [N-(3,4-dichlorophenyl)-1-methyl-3-oxo-1,3-dihydro-2,1-benzisothiazole-5-sulfonamide] | 94.08% | 5.93 |
| Cn1sc(=O)c2cc(S(=O)(=O)Nc3cccc(Cl)c3)ccc21 [N-(3-chlorophenyl)-1-methyl-3-oxo-1,3-dihydro-2,1-benzisothiazole-5-sulfonamide] | 84% |  |
| COc1cccc(NS(=O)(=O)c2ccc3c(c2)c(=O)sn3C)c1 [N-(3-methoxyphenyl)-1-methyl-3-oxo-1,3-dihydro-2,1-benzisothiazole-5-sulfonamide] | 84% | 5.61 |
| COc1cccc(S(=O)(=O)Nc2cc(Cl)c(Cl)cc2NS(=O)(=O)c2ccc3c(c2)c(=O)sn3C)c1 [N-(4,5-dichloro-2-{[(3-methoxyphenyl)sulfonyl]amino}phenyl)-1-methyl-3-oxo-1,3-dihydro-2,1-benzisothiazole-5-sulfonamide] | 92% | 6.19 |
| Cn1sc(=O)c2cc(S(=O)(=O)Nc3cc(Cl)c(Cl)cc3NS(=O)(=O)c3cc(Cl)c(Cl)s3)ccc21 [N-(4,5-dichloro-2-{[(4,5-dichloro-2-thienyl)sulfonyl]amino}phenyl)-1-methyl-3-oxo-1,3-dihydro-2,1-benzisothiazole-5-sulfonamide] | 103% | 5.63 |
| COc1ccc(S(=O)(=O)Nc2cc(Cl)c(Cl)cc2NS(=O)(=O)c2ccc3c(c2)c(=O)sn3C)cc1 [N-(4,5-dichloro-2-{[(4-methoxyphenyl)sulfonyl]amino}phenyl)-1-methyl-3-oxo-1,3-dihydro-2,1-benzisothiazole-5-sulfonamide] | 86% | 5.99 |
| Cc1ccc(S(=O)(=O)Nc2cc(Cl)c(Cl)cc2NS(=O)(=O)c2ccc3c(c2)c(=O)sn3C)s1 [N-(4,5-dichloro-2-{[(5-methyl-2-thienyl)sulfonyl]amino}phenyl)-1-methyl-3-oxo-1,3-dihydro-2,1-benzisothiazole-5-sulfonamide] | 95% | 6.07 |
| Cc1cc(NS(=O)(=O)c2ccc3c(c2)c(=O)sn3C)c(C)cc1Cl [N-(4-chloro-2,5-dimethylphenyl)-1-methyl-3-oxo-1,3-dihydro-2,1-benzisothiazole-5-sulfonamide] | 80% | 5.73 |
| COc1cc(Cl)c(C)cc1NS(=O)(=O)c1ccc2c(c1)c(=O)sn2C [N-(4-chloro-2-methoxy-5-methylphenyl)-1-methyl-3-oxo-1,3-dihydro-2,1-benzisothiazole-5-sulfonamide] | 0% | < 5.08 |
| COc1ccc(C(=O)Nc2ccc(Cl)cc2NS(=O)(=O)c2ccc3c(c2)c(=O)sn3C)cc1 [N-(4-chloro-2-{[(1-methyl-3-oxo-1,3-dihydro-2,1-benzisothiazol-5-yl)sulfonyl]amino}phenyl)-4-methoxybenzamide] | 56% |  |
| CC(=O)Nc1ccc(S(=O)(=O)Nc2ccc(Cl)cc2NS(=O)(=O)c2ccc3c(c2)c(=O)sn3C)cc1 [N-(4-{[(4-chloro-2-{[(1-methyl-3-oxo-1,3-dihydro-2,1-benzisothiazol-5-yl)sulfonyl]amino}phenyl)amino]sulfonyl}phenyl)acetamide] | 80% | 5.65 |
| COc1ccc(S(=O)(=O)Nc2ccc(Cl)cc2NS(=O)(=O)c2ccc3c(c2)c(=O)sn3C)c(OC)c1 [N-(5-chloro-2-{[(2,4-dimethoxyphenyl)sulfonyl]amino}phenyl)-1-methyl-3-oxo-1,3-dihydro-2,1-benzisothiazole-5-sulfonamide] | 95% | 5.77 |
| COc1ccccc1S(=O)(=O)Nc1ccc(Cl)cc1NS(=O)(=O)c1ccc2c(c1)c(=O)sn2C [N-(5-chloro-2-{[(2-methoxyphenyl)sulfonyl]amino}phenyl)-1-methyl-3-oxo-1,3-dihydro-2,1-benzisothiazole-5-sulfonamide] | 91% | 6.40 |
| Cn1sc(=O)c2cc(S(=O)(=O)Nc3cc(Cl)ccc3NS(=O)(=O)c3ccc(Cl)c(Cl)c3)ccc21 [N-(5-chloro-2-{[(3,4-dichlorophenyl)sulfonyl]amino}phenyl)-1-methyl-3-oxo-1,3-dihydro-2,1-benzisothiazole-5-sulfonamide] | 97% | 5.89 |
